The source of these data is ChEMBL document CHEMBL1147913, “Na+-glucose cotransporter (SGLT) inhibitory flavonoids from the roots of Sophora flavescens” (Bioorg Med Chem, 2007).

pIC50: −log10 of the molar value.

The target in assay [1] is T1, Sodium/glucose cotransporter 2 (Homo sapiens) (UniProt P31639).
T1 sequence (whole entry): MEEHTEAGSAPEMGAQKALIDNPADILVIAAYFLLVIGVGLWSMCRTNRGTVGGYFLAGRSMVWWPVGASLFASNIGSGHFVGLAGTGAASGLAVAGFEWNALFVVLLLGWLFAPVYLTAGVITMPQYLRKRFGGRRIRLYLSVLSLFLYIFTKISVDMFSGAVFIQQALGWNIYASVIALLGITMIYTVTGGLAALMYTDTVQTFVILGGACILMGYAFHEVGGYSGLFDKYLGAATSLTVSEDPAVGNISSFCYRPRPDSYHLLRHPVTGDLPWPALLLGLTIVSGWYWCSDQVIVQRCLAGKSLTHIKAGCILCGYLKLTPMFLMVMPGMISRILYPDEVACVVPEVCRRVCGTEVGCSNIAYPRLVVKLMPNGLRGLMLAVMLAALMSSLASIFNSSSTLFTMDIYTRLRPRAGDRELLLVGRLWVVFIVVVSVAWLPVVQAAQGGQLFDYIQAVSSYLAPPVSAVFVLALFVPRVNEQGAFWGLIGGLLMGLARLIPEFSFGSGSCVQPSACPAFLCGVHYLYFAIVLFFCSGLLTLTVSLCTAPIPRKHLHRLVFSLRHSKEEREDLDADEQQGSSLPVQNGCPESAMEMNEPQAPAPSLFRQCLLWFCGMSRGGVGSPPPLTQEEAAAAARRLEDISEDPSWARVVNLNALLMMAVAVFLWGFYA
Put plainly: Inhibition of human SGLT2 expressed in COS1 cells assessed as [14C]methyl-alpha-D-glucopyranoside uptake at 50 uM. Format: cell-based. The conditions noted are these: COS-1.

The target of assay [2] is T2, Sodium/glucose cotransporter 1 (Homo sapiens) (UniProt P13866).
T2 sequence (whole entry): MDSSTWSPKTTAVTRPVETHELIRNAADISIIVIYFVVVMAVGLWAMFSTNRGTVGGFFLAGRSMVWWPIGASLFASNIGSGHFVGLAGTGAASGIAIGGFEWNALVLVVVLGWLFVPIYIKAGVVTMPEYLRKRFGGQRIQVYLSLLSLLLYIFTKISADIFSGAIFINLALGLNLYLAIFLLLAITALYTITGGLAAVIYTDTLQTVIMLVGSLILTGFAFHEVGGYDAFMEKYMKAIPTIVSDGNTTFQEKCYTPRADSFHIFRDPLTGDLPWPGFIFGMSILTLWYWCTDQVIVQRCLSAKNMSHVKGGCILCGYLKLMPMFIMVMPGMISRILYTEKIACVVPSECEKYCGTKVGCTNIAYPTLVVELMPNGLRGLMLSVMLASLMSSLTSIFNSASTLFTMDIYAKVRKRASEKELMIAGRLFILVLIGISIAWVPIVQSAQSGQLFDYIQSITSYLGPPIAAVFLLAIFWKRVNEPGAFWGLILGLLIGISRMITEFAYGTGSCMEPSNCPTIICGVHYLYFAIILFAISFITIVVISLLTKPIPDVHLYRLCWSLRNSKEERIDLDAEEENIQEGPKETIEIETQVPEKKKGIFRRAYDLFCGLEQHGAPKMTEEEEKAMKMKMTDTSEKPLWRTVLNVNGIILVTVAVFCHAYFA
The assay is described as follows: Inhibition of human SGLT1 expressed in COS1 cells assessed as [14C]methyl-alpha-D-glucopyranoside uptake at 50 uM. To be noted: COS-1. It is filed as cell-based.

Assay [3] addresses T3, Sodium/glucose cotransporter 2 (Homo sapiens, UniProt P31639).
T3 sequence (P31639 whole entry): T1 sequence (whole entry)
The assay is described as follows: Inhibition of human SGLT2 expressed in COS1 cells assessed as [14C]methyl-alpha-D-glucopyranoside uptake. Format: cell-based, COS-1.

For `C=C(C)[C@H](CC=C(C)C)Cc1c(O)cc(OC)c(C(=O)/C=C/c2ccc(O)cc2O)c1O`, the inhibition (in general, the share of the control response that was lost under treatment) is 100% in assay [1] and 71.1% in assay [2].
Taken in the same sequence, the figures for `COc1ccc2c(c1)OC[C@H]1c3cc4c(cc3O[C@@H]21)OCO4` were below 25% and below 25%.
As for `Oc1ccc2c(c1)OC[C@H]1c3cc4c(cc3O[C@@H]21)OCO4`, the inhibition in assay [1] was 66.5%; in assay [2], below 25%.
`C=C(C)[C@H](CC=C(C)C)Cc1c(O)cc(O)c2c1O[C@H](c1ccc(O)cc1O)CC2=O` [SOPHORAFLAVANONE G]: the figures for the inhibition in assay [1] and in assay [2] were 100% and 99.2%, respectively. Also, the pIC50 (as a rule, the IC50 on a negative log10 scale, so that one unit is a factor of ten) in assay [3] was 5.39.
In the case of `C=C(C)[C@H](CCC(C)(C)O)Cc1c(O)cc(OC)c2c1O[C@H](c1ccc(O)cc1O)[C@H](O)C2=O`, the values for the inhibition in assay [1] and in assay [2] were 43.7% and 29.7%, respectively.
Take `C=C(C)C(CC=C(C)C)Cc1c(O)cc(OC)c2c1O[C@H](c1ccc(O)cc1O)CC2=O` (stereo partly drawn) [KURARINONE]: the figures for the inhibition in assay [1] and in assay [2] were 99.7% and 98.8%, respectively. The pIC50 in assay [3] is 5.77.
Regarding `C=C(C)C(CC=C(C)C)Cc1c(O)cc(OC)c2c1O[C@H](c1ccc(O)cc1O)[C@H](O)C2=O` (stereo partly drawn), the inhibition in assay [1] is 87.3%; in assay [2], 58.4%.
`COc1ccc(-c2coc3cc(O)ccc3c2=O)cc1`: the results for the inhibition in assay [1] and in assay [2] were 75.4% and below 25%, respectively.
